# Results as given in patent US20030022938A1, “N-fatty acid-amino acid conjugates and therapeutic uses” (priority 2001, published 2003).
# “Also recorded” adds a separate entry of the source.
# Key:
# [1] = tested on: anandamide levels in RAW cells; experiment: Anandamide levels in intact cultured RAW cells (HPLC-MS/MS); format: cell-based, murine; parameters: elevation of basal concentrations of anandamide: dose or concentration left out as unconfirmed
# Method: Cells were grown as described previously (Pestonjamasp and Burstein, Biochim Biophys Acta, 1394(2-3):249-60, 1998).
# human T lymphocytes [2] = experiment: Proliferation of anti CD3, CD4 treated human T lymphocytes; format: cell-based; conditions: 0.1 to 1.0 mM, vs vehicle (DMSO)
# IL-1β [3] = experiment: IL-1β release from human peripheral blood monocytes (ELISA), LPS stimulated or not stimulated; format: cell-based; parameters: IL-lé release from PBM not stimulated with LPS (adherence only): dose or concentration left out as unconfirmed; conditions: for IL-lé secretion from LPS stimulated peripheral blood mononuclear cells: 60 min preincubation, LPS 10 ng/ml 18 hours; for IL-lé release from PBM not stimulated with LPS (adherence only): unstimulated cells, 18 hours
# Method: Cells (2×106) were incubated for 60 minutes with either agent at the indicated concentrations. Vehicle (0.5% DMSO) treated cells served as controls. Cells were then not stimulated (FIG. 3A) or stimulated (FIG. 3B) with LPS (10 ng/ml) for 18 hours, at which time supernatant IL-lé was measured by ELISA. Values shown are the means obtained from triplicate samples (Control A=826 pg/ml; Control B=8.68±0.5 ng/ml).
# human T-lymphocytes = experiment: PHA stimulated T-cell proliferation (BrDU incorporation); format: cell-based; conditions: 0.1-10 mM, PHA 10 ng/ml, 72 hours
# Method: The cells were then stimulated with PHA (10 ng/ml) and incubated for 72 hours. A control set treated with NAGly/DMSO not stimulated with PHA was incubated in parallel. Cell numbers were determined by measuring BrDU incorporation for 24 hours. The values shown (see “PRO[…]” on the y-axis) are the ratios of the optical density readings from treated and control cells.
# Cell proliferation in vitro was measured by incorporation of 5-bromo-2′-deoxyuridine (BrDU) instead of thymidine into the DNA of proliferating cells. […] Cells (2×10^5 per well) were then cultured in 96 well, flat bottomed microtiter plates and stimulated with PHA (10 ng/ml) or not stimulated. Cultures were maintained for 72 hours in a standard cell incubator at 37° C. BrDU was then added to all wells and cells are then reincubated for 24 hours. The medium was removed and the cells were fixed and DNA was denatured. Anti-BrDU-peroxidase was added and the immune complex was detected by substrate (tetramethylbenzidine) reaction. The reaction was stopped with […] sulfuric acid (1N) and the product was quantified by measuring the absorbance at 492 nm with reference at 650 nm. Absorbance correlated directly to the amount of DNA synthesis, and, thereby, to the number of proliferating cells in each culture.
# IL-1β [4] = conditions: concentrations of 1 μm and 10 μm; Burstein et al. 2000; cited from earlier work
# [5] = tested on: arachidonic acid-induced paw edema; experiment: Arachidonic acid-induced paw edema test; format: in vivo, mice
# Method: The conditions employed in the paw edema test have been previously described (Calhoun et al., Agents Actions, 21:306-309, 1987; Burstein et al., J. Pharmacology and Experimental Therapeutics, 251:531-535; Burstein et al., J. Med. Chem., 35:3135-41, 1992), with water being substituted for mercury as the displacement medium. Arachidonic acid (1.0 mg) in 25 μl of saline is injected subcutaneously into the plantar surface of the right hindpaw of ether-anesthetized CD-1 female mice (20-25 g) obtained from Charles River Laboratories. The volume of the right foot is then measured to the level of the lateral malleolus by water displacement before treatment and 30 minutes after arachidonic acid injection. An N-fatty acid-amino acid conjugate, in 50 μl of peanut oil, is given p.o. to the mice 30 min prior to the induction of edema by arachidonic acid. The change in paw volume is calculated for each mouse and the significance for each group can be determined by an ANOVA test.
# The conditions were previously described by Calhoun et al. (Agents Actions, 21:306-309, 1987), and by Burstein et al. (J. Pharmacology and Experimental Therapeutics, 251:531-535; J. Med. Chem., 35:3135-41, 1992), with water being substituted for mercury as the displacement medium. Arachidonic acid (1.0 mg in 25μl of saline) was injected subcutaneously into the plantar surface of the right hindpaw of ether-anesthetized CD-1 female mice (20-25 g) obtained from Charles River Laboratories. The volume of the right foot was measured to the level of the lateral malleous by water displacement before treatment and 30 minutes after arachidonic acid injection. […] The change in paw volume was calculated for each mouse and the significance for each group was determined by an ANOVA test.
# [6] = tested on: formalin-induced pain behavior; experiment: Formalin test for pain reduction; format: in vivo; conditions: rats
# Method: Rats received intraplantar injections of formalin in the hindpaw, and pain behavior consisting of lifting and licking of the injected paw was observed. Drug or co-vehicle was coinjected with the formalin solution (4.5% formalin in 10% DMSO, 100μl, s.c., ipl.).
# NF-κB = experiment: NFk-B inhibition studies in PBM (DNA binding, autoradiographic-PAGE); format: cell-based; conditions: 1 hour, then LPS 10 ng/ml 60 minutes; human PBM, two donors
# Method: PBM from two donors were prepared and treated separately. Cell extracts were then obtained and analyzed for DNA binding of NF-kB, as determined by autoradiographic-PAGE measurement, according to the following method. […] Media were then removed and the cells were transferred to 1.5 ml microcentrifuge tubes and washed 2 times with ice cold PBS. After centrifugation at 10,000 rpm, PBS was removed and 0.5 ml of cytoplasmic extraction buffer (buffer A) was added to the cell pellet. Tubes were vortexed and placed on ice for 10 minutes, then centrifuged at 12,000 rpm for 5 minutes. Cells were washed once with buffer A, which was then added to previous cytosol extract fraction. Cytoplasmic extracts were saved at −80° C. until use. 0.1 ml of cold nuclear extraction buffer (buffer B) was then added to precipitated nuclei and incubated for 60-120 minutes in ice. Nuclear extracts were obtained by centrifugation at 12,000 rpm for 10 minutes and saved at −80° C. until use. (Extraction buffer A is a hypotonic solution and contains HEPES, KCl, EDTA, EGTA, DTT, PMSF, leupeptin, antipain, aprotinin, and NP-40 detergent. Extraction buffer B is a high salt buffer and contains all of the above agents plus glycerol.) The protein concentrations of the nuclear extracts were determined by the Bradford protein assay (Coumassie blue staining). […] Gels were scanned and analysed utilizing the Adobe software for PC.
# [7] = tested on: arachidonic acid release in RAW cells; experiment: Arachidonic acid release in RAW cells; format: cell-based, murine
# Method: Radiolabelled arachidonic acid was incorporated into the cellular lipid pools for 20 hours. […] Over the concentration range of 1.6-32 mM, a 300% increase in labeled, free arachidonic acid was found in the media when compared to vehicle treated control values. Media from cells in the control group contained 8,800±1600 dpm.
# The cells were grown in MEM with 1% penicillin-streptomycin and 10% fetal bovine serum at 37° C. under 95% […]:5% carbon dioxide to about 85% confluence. Cells were contained in 24-well plates and labeled with 100,000 dpm/ml/well of ^3H or ^14C arachidonic acid at 37° C. for 20 hours (Pestonjamasp and Burstein, Biochim Biophys Acta, 1394(2-3):249-60, 1998). The wells were washed 4 times with 0.5% BSA in MEM followed by incubation in 1 ml 0.1% BSA-MEM for 60 minutes. […] Control values were obtained with 10 μl of vehicle. Media were collected, centrifuged at 3000×g to remove cells, and 0.1 ml withdrawn and assayed for radioactivity by liquid scintillation counting.
# [8] = tested on: blood levels of anandamide; conditions: 10 mg/kg p.o., rats, 45 minutes post treatment, vs vehicle-treated
# Method: Anandamide and NAGly levels were measured in plasma extracts by HPLC-MS/MS with d8-anandamide added as an internal standard. Reverse phase HPLC was performed on a 100×1 mm i.d. column packed with ODS Hypersil® (3 μm, 120 A pore size, Keystone Scientific, Inc., Bellefonte, Pa.). A Rheos® 2000 micro HPLC pumping system was used to pump the mobile phase (90% methanol, 10% 0.05% pH 5.7 aqueous ammonium acetate buffer) at 50μl/minute. The outlet from the column was connected directly to the electrospray ion source of a Finnigan® LCQ quadrupole ion trap mass spectrometry system. Positive ion electrospray ionization was used with the source at 4500 V, the capillary at 200° and the nitrogen sheath gas at a relative setting of 60. NAGly eluted at 1.4 minutes and was detected by MS2 of its MH+ion (m/z 362.2) with an isolation window of 2.5 Th and relative collision energy (CID) of 29%. Full product ion spectra were collected from m/z 95-370 and peak areas from ion plots of m/z 287.2 were used for quantitation. Anandamide and d8-anandamide were similarly detected using their MH+ions (m/z 348.2 and 356.2) as precursors with isolation windows of 2.5 Th and CID at 30%. […] Concentrations of NAGly and anandamide were calculated from their peak area ratios to the internal standard with reference to an external calibration curve. […]
# [9] = tested on: RAW 264.7 murine monocyte cells; experiment: RAW cell proliferation (MTT assay); format: cell-based; conditions: 24 hours treatment; 25, 50 and 100 mM
# Method: Cells were maintained in MEM containing 0.5% serum overnight. […] After a 24 hour incubation period, […] MTT (Sigma Co) solution (5 mg/ml in PBS) was added to each well and incubated for 2 hours at 37° C. Then, cells were triturated in 1.1 ml isopropanol MTT solubilization solution (Sigma Co). […] of this mixture was then transferred in duplicate to a 96 well plate and the optical density recorded using a ThermoMax® microplate reader at […] absorbance. Based on a standard curve with known numbers of cells, experimental readings were in the linear range for cell numbers.
# Values shown in FIG. 5 are optical density readings obtained using the MTT assay and are directly proportional to the numbers of cells. They are the means of four replicates ± SD. […] The values shown are the optical density readings obtained from the MTT assay where a value of 0.5 is approximately equivalent to 2×10^4 cells. Vehicle treated cells served as the control and gave a reading of 0.396±0.047 O.D. units. The data shown is representative of three independent experiments.
# human T lymphocytes [10] = conditions: Burstein et al. 2000; cited from earlier work
# [11] = 275 nmol coinjected with formalin
compound,measurement,setting,value
Deuterated N-arachidonylglycine [d8-NAGly],elevation of basal concentrations of anandamide,[1],50%
same,increase in anandamide (unlabelled),[1]; 10 mM deuterated NAGly,~3 ng/mL
same,increase in d8-anandamide,[1]; 10 mM deuterated NAGly,< 0.5 ng/mL
"CCCCC/C=C\C/C=C\C/C=C\C/C=C\CCCC(=O)NCCO [anandamide, reference compound]","proliferation of anti CD3, CD4 treated human T lymphocytes",human T lymphocytes [2],either no effect or a modest inhibition
same,"proliferation of anti CD3, CD4 treated human T lymphocytes",human T lymphocytes [2]; listed as Anandamide,only inhibition
same,IL-lé secretion from LPS stimulated peripheral blood mononuclear cells,IL-1β [3],smaller effect
same,IL-lé secretion from LPS stimulated peripheral blood mononuclear cells,IL-1β [3]; listed as Anandamide,less effective than NAGly
same,IL-lé release from PBM not stimulated with LPS (adherence only),IL-1β [3],less effective than NAGly
same,proliferation of PHA stimulated T-cells (proliferation index),human T-lymphocytes,little or no effect
same,proliferation of PHA stimulated T-cells (proliferation index),human T-lymphocytes; listed as Anandamide,no significant effects
same,IL-1β secretion from stimulated human PBMC,IL-1β [4],modestly suppress
"COc1ccc2c(c1)c(CC(=O)O)c(C)n2C(=O)c1ccc(Cl)cc1 [indomethacin, reference compound]",paw edema response of the reference NSAID,[5]; 0.2 mg/kg,equivalent response
"CCCCC/C=C\C/C=C\C/C=C\C/C=C\CCCC(=O)O [arachidonic acid, reference compound]",pain suppression in the formalin test,[6]; [11],Neither glycine nor arachidonic acid (275 nmol) suppressed pain
"NCC(=O)O [glycine, reference compound]",pain suppression in the formalin test,[6]; [11],Neither glycine nor arachidonic acid (275 nmol) suppressed pain
N-arachidonyl glycine [NAGly],elevation of basal concentrations of anandamide,[1],50%
same,"proliferation of anti CD3, CD4 treated human T lymphocytes",human T lymphocytes [2],inverse dose-related increase; also recorded: stimulatory at low concentrations and somewhat inhibitory at higher concentrations
same,IL-lé secretion from LPS stimulated peripheral blood mononuclear cells,IL-1β [3],more effective inhibitor than anandamide; also recorded: suppresses; also recorded: inhibitory in a dose-related fashion
same,IL-lé release from PBM not stimulated with LPS (adherence only),IL-1β [3],more effective inhibitor than anandamide; also recorded: striking reduction; also recorded: markedly reduces
same,binding of NF k-B to DNA / NFk-B activation,NF-κB,effectively reduces; also recorded: strong inhibitory effect
same,"increase in labeled, free arachidonic acid in the media","[7]; 1.6-32 mM, 60 minutes, vs vehicle treated control",300%
same,stimulation of arachidonic acid release,[7]; range of 2-32 mM,three fold stimulation
same,second phase (tonic pain) of the formalin response,"[6]; 275 nmol coinjected with formalin, intraplantar",markedly suppressed
same,first phase (acute pain) of the formalin response,"[6]; coinjected with formalin, intraplantar",no effect
same,rise in blood levels of anandamide,[8],nearly ten-fold rise
same,inhibition of RAW cell proliferation (MTT optical density),[9],dose-related inhibition; also recorded: Significant decreases in cell numbers; also recorded: significant inhibition of cell proliferation
same,"proliferation of CD3-CD4 antibody-stimulated T-cells, prior observation",human T lymphocytes [10],biphasic effect
same,IL-1β secretion from stimulated human PBMC,IL-1β [4],modestly suppress
same,reduction of paw volumes,"[5]; 4 mg/kg orally, vs vehicle treated",reduced paw volumes by one half
same,paw edema response compared with indomethacin,[5]; NAGly 4 and 40 mg/kg vs 0.2 mg/kg indomethacin,equivalent response
same,reduction of paw edema,"[5]; doses of 4 and 40 mg/kg p.o., 30 min before arachidonic acid, vs untreated control mice that received only arachidonic acid",more than 50%
